Results as given in patent US7011844B2 (Alza Corporation, priority 1996, dated 2006).

Key:
[1] = administered orally as fluoxetine hydrochloride (Prozac), 10 mg or 20 mg daily doses, cited from earlier work
[2] = Procedure: The experiment was carried out using standard glass diffusion cells which consist of a donor compartment with a 7.5 ml capacity, and a receptor compartment with a 22 ml capacity. A circular piece of epidermis was placed in each diffusion cell (permeation area=2.27 cm^2) in a horizontal position between a lower capped receptor compartment and an upper capped donor compartment. The receptor compartment has both a venting tube (uncapped) and a sampling port (capped). The stratum corneum side of the epidermis faced the donor compartment. An O-ring was positioned between the epidermis and the donor compartment, and a clamp held the compartments together. The receptor solution, 22 ml of 0.001 M phosphoric acid solution, pH 3.2, was added to each receptor compartment. The cells were placed in a temperature controlled water bath shaker at 35° C. and allowed to come to temperature before the donor solution was added.
At each time interval, the receptor solution was removed from the test cell and replaced with an equal volume of fresh receptor solution previously equilibrated at 35° C. […] From the drug concentration and the volume of the receptor solutions, the area of permeation and the time interval, the flux of the drug through the epidermis was calculated as follows: (drug concentration×volume of receptor)/(area×time)=flux (μg/cm^2·hr).
Transdermal fluxes were obtained using human epidermis at 35° C. in standard diffusion cells using the procedure set forth in Example 1. FIG. 6 graphically depicts the results.
Transdermal fluxes were obtained using human epidermis at 35° C. in standard diffusion cells using the procedure set forth in Example 1.

skin = skin irritation on transdermal administration (inventors' finding); format: in vivo
Description: According to this preferred embodiment, a pharmaceutically acceptable salt of fluoxetine is coadministered with an anti-irritant, preferably a corticosteroid such as hydrocortisone.
Other salts which provide the necessary flux and irritation levels can be determined in accordance with the principles of the teachings of this invention.

Molecule	elimination half-life, averaging ([1]; average) [h]	elimination half-life [1] [h]	effect of methyl laurate by itself on fluoxetine flux ([2]; 10% fluoxetine base in oil/petrolatum with 0-10% methyl laurate, FIG. 6)	increase of fluoxetine flux by addition of GML ([2]; 10% fluoxetine base in oil/petrolatum with 2.5-10% GML, FIG. 5)	effect of the combination of methyl laurate and GML on fluoxetine flux ([2]; 10% fluoxetine base in oil/petrolatum with 5% methyl laurate and 0-10% GML, FIG. 7, compared with GML or methyl laurate individually)	skin irritation when administered transdermally (skin; in vivo)	skin irritation when administered transdermally (skin; transdermal administration, base or salt form as labelled)
CNCCC(Oc1ccc(C(F)(F)F)cc1)c1ccccc1 (racemic) [fluoxetine, (±)-N-methyl-γ-[4-(trifluoromethyl)-phenoxy] benzenepropanamine]	48 to 72	24 to 220	did not significantly increase	two to five fold	synergistic effect	moderately to severely irritating	–
fluoxetine acetate	–	–	–	–	–	–	reduced irritation levels
